The source of these data is patent US20260365682A1, “MODULATORS OF TNF-ALPHA ACTIVITY” (Forward Therapeutics, Inc., priority 2022, published 2026).

In the assay the target is T1, TNF-α (Homo sapiens, UniProt P01375).
T1 construct: purchased R&D 210-TA-020/CF
Briefly: TNF-α Induced HEK Blue Cellular Assay (secreted alkaline phosphatase expression, QUANTI-Blue). The settings on record: HEK Blue TNFα reporter cells; TNF-α 100 μg/ml; 24 hrs at 37° C.; inhibition of secreted alkaline phosphatase; read-out: IC50 value. The class given is cell-based. The method, boiled down:
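Compound was serially diluted from […] to 0.5 nM final, then incubated with 10,000 HEK Blue TNFα reporter cells per well and […] TNF-α for 24 h at 37° C. SEAP output was read by QUANTI-Blue absorbance at 620 nm. Inhibition was background-corrected against DMSO controls with and without stimulation, and IC50 was fitted with a 4-parameter logistic equation.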

T1 sequence (P01375 77-233 limits assumed): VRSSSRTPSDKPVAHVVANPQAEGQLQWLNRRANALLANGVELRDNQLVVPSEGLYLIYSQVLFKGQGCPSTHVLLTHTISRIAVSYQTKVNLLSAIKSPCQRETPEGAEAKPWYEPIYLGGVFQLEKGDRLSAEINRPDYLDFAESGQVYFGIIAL

Broadly, the IC50 is the midpoint of a concentration-inhibition curve. As for `[2H]C([2H])([2H])N1C(=O)c2cccc(OC(F)F)c2[C@H]2C[C@@H]1c1nc3ccc(C#Cc4cnc(N)nc4)cc3n12` [Example 249, (7R,14R)-11-((2-aminopyrimidin-5-yl)ethynyl)-1-(difluoromethoxy)-6-(methyl-d3)-6,7-dihydro-7,14-methanobenzo[f]benzo[4,5]imidazo[1,2-a][1,4]diazocin-5(14H)-one], the IC50 was less than 100 nM.
Next, `[2H]C([2H])([2H])N1C(=O)c2cccc(OC(F)F)c2[C@H]2C[C@@H]1c1nc3ccc(C#CC4(O)CN(C5COC5)C4)cc3n12` [Example 250, (7R,14R)-1-(difluoromethoxy)-11-((3-hydroxy-1-(oxetan-3-yl)azetidin-3-yl)ethynyl)-6-(methyl-d3)-6,7-dihydro-7,14-methanobenzo[f]benzo[4,5]imidazo[1,2-a][1,4]diazocin-5(14H)-one]: less than 100 nM.
Next, `[2H]C([2H])([2H])N1C(=O)c2cccc(OC(F)F)c2[C@H]2C[C@@H]1c1nc3ccc(C#CC4(O)CNC4)cc3n12` [Example 251, (7R,14R)-1-(difluoromethoxy)-11-((3-hydroxyazetidin-3-yl)ethynyl)-6-(methyl-d3)-6,7-dihydro-7,14-methanobenzo[f]benzo[4,5]imidazo[1,2-a][1,4]diazocin-5(14H)-one]: 10000 to 30000 nM.
Next, `[2H]C([2H])([2H])N1C(=O)c2cccc(OC(F)F)c2[C@H]2C[C@@H]1c1nc3ccc(C#CC4(F)CN(C5COC5)C4)cc3n12` [Example 252, (7R,14R)-1-(difluoromethoxy)-11-((3-fluoro-1-(oxetan-3-yl)azetidin-3-yl)ethynyl)-6-(methyl-d3)-6,7-dihydro-7,14-methanobenzo[f]benzo[4,5]imidazo[1,2-a][1,4]diazocin-5(14H)-one]: less than 100 nM; `[2H]C([2H])([2H])N1C(=O)c2cccc(OC(F)F)c2[C@H]2C[C@@H]1c1nc3ccc(C#CC4(F)CNC4)cc3n12` [Example 253, (7R,14R)-1-(difluoromethoxy)-11-((3-fluoroazetidin-3-yl)ethynyl)-6-(methyl-d3)-6,7-dihydro-7,14-methanobenzo[f]benzo[4,5]imidazo[1,2-a][1,4]diazocin-5(14H)-one]: less than 100 nM.
For the molecule `[2H]C([2H])([2H])N1C(=O)c2cccc(OC(F)F)c2[C@H]2C[C@@H]1c1nc3ccc(C#C[C@H]4C[C@H](NC)C4)cc3n12` [Example 254, (7R,14R)-1-(difluoromethoxy)-6-(methyl-d3)-11-(((1r,3R)-3-(methylamino)cyclobutyl)ethynyl)-6,7-dihydro-7,14-methanobenzo[f]benzo[4,5]imidazo[1,2-a][1,4]diazocin-5(14H)-one], the IC50 is less than 100 nM.
Next, `[2H]C([2H])([2H])N1C(=O)c2cccc(OC(F)F)c2[C@H]2C[C@@H]1c1nc3ccc(C#Cc4ccc(NC(C)=O)nc4)cc3n12` [Example 255, N-(5-(((7R,14R)-1-(difluoromethoxy)-6-(methyl-d3)-5-oxo-5,6,7,14-tetrahydro-7,14-methanobenzo[f]benzo[4,5]imidazo[1,2-a][1,4]diazocin-11-yl)ethynyl)pyridin-2-yl)acetamide]: less than 100 nM; `[2H]C([2H])([2H])N1C(=O)c2cccc(OC(F)F)c2[C@H]2C[C@@H]1c1nc3ccc(C#CC4CN(C5COC5)C4(C)C)cc3n12` (stereo partly drawn) [Example 256, (7R,14R)-1-(difluoromethoxy)-11-((2,2-dimethyl-1-(oxetan-3-yl)azetidin-3-yl)ethynyl)-6-(methyl-d3)-6,7-dihydro-7,14-methanobenzo[f]benzo[4,5]imidazo[1,2-a][1,4]diazocin-5(14H)-one]: less than 100 nM.
The result for `[2H]C([2H])([2H])N1C(=O)c2cccc(OC(F)F)c2[C@H]2C[C@@H]1c1nc3ccc(C#Cc4cnc(NC(C)=O)nc4)cc3n12` [Example 259, N-(5-(((7R,14R)-1-(difluoromethoxy)-6-(methyl-d3)-5-oxo-5,6,7,14-tetrahydro-7,14-methanobenzo[f]benzo[4,5]imidazo[1,2-a][1,4]diazocin-11-yl)ethynyl)pyrimidin-2-yl)acetamide] reads less than 100 nM; that for `[2H]C([2H])([2H])N1C(=O)c2cccc(OC(F)F)c2[C@H]2C[C@@H]1c1nc3ccc(C#Cc4nnc(NC(C)=O)s4)cc3n12` [Example 260, N-(5-(((7R,14R)-1-(difluoromethoxy)-6-(methyl-d3)-5-oxo-5,6,7,14-tetrahydro-7,14-methanobenzo[f]benzo[4,5]imidazo[1,2-a][1,4]diazocin-11-yl)ethynyl)-1,3,4-thiadiazol-2-yl)acetamide], less than 100 nM.
The result for `[2H]C([2H])([2H])N1C(=O)c2cccc(OC(F)F)c2[C@H]2C[C@@H]1c1nc3ccc(C#Cc4nnc(NC(=O)OC(C)(C)C)s4)cc3n12` [Example 261, tert-butyl (5-(((7R,14R)-1-(difluoromethoxy)-6-(methyl-d3)-5-oxo-5,6,7,14-tetrahydro-7,14-methanobenzo[f]benzo[4,5]imidazo[1,2-a][1,4]diazocin-11-yl)ethynyl)-1,3,4-thiadiazol-2-yl)carbamate] reads less than 100 nM.
On to `[2H]C([2H])([2H])N1C(=O)c2cccc(OC(F)F)c2[C@H]2C[C@@H]1c1nc3ccc(C#CC#N)cc3n12` [Example 262, 3-((7R,14R)-1-(difluoromethoxy)-6-(methyl-d3)-5-oxo-5,6,7,14-tetrahydro-7,14-methanobenzo[f]benzo[4,5]imidazo[1,2-a][1,4]diazocin-11-yl)propiolonitrile], for which the IC50 is less than 100 nM.
Next, `[2H]C([2H])([2H])N1C(=O)c2cccc(OC(F)F)c2[C@H]2C[C@@H]1c1nc3ccc(C#Cc4nnc(N)s4)cc3n12` [Example 263, (7R,14R)-11-((5-amino-1,3,4-thiadiazol-2-yl)ethynyl)-1-(difluoromethoxy)-6-(methyl-d3)-6,7-dihydro-7,14-methanobenzo[f]benzo[4,5]imidazo[1,2-a][1,4]diazocin-5(14H)-one]: less than 100 nM.
